Assay results from PubChem BioAssay (NCI).
Values joined by “and” are separate entries in the source; they are usually repeats but may differ in a detail not shown here. Equal entries are not always repeated.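 A five-concentration, 48-hour dose response in 96-well plates underlies each endpoint, interpolated linearly between surrounding concentrations. Abbreviation: GI50, concentration required for 50% inhibition of growth. Definition used: TGI = concentration required for complete inhibition of growth.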

Legend:
Assay in all cases: DTP human tumour cell line panel, 48 h
[1] = test system: CAKI-1 renal
[2] = test system: DU-145 prostate
[3] = test system: EKVX NSCLC
[4] = test system: MOLT-4 leukemia
[5] = test system: NCI-H460 lung
[6] = test system: RPMI-8226 leukemia
[7] = test system: SK-MEL-28 melanoma
[8] = test system: SK-MEL-5 melanoma
[9] = test system: SNB-19 CNS
[10] = test system: U251 CNS

Compound | TGI [1] | TGI [2] [µM] | TGI [3] [µM] | TGI [4] [µM] | TGI [5] | TGI [6] [µM] | TGI [7] | TGI [8] | TGI [9] | TGI [10] | GI50 [1] [µM] | GI50 [2] [µM] | GI50 [3] [µM] | GI50 [4] [µM] | GI50 [5] [µM] | GI50 [6] | GI50 [7] [µM] | GI50 [8] [µM] | GI50 [9] [µM] | GI50 [10] [µM]
CCOC(=O)c1cc2ncccc2c2ccccc12 | > 100 µM | > 100 | > 100 | > 100 | > 100 µM | > 100 | > 100 µM | > 100 µM | > 100 µM | > 100 µM | – | – | – | – | – | – | – | – | – | –
CN(CCC(=O)O)S(=O)(=O)c1ccccc1 | > 100 µM | > 100 | > 100 | > 100 | > 100 µM | > 100 | > 100 µM | > 100 µM | > 100 µM | > 100 µM | – | – | – | – | – | – | – | – | – | –
CO[C@H](C(=O)N[C@@H](CCCCNC(=O)OCc1ccccc1)C(=O)OC(C)(C)C)[C@@H]1Cc2cc3cc(OC4CC(OC5CC(O)C(O)C(C)O5)C(O)C(C)O4)c(C)c(O)c3c(O)c2C(=O)[C@H]1OC1CC(OC2CC(OC3CC(C)(O)C(O)C(C)O3)C(O)C(C)O2)C(O)C(C)O1 (stereo partly specified) | 3.42 µM | > 10 | 3.1 | 2.73 | 1.49 µM | 3.65 | 1.87 µM | 1.59 µM | 2.6 µM | 1.94 µM | 1.04 | 0.842 | 1.17 | 0.381 | 0.364 | 0.487 µM | 0.468 | 0.432 | 0.52 | 0.529
Cc1ccc(NC(=O)c2ccnc(N3CCCC3)c2)cc1-c1ccc(C(=O)NCC2CC2)cc1 | > 25 µM | > 25 | > 25 | > 25 | > 25 µM | > 25 | > 25 µM | > 25 µM | > 25 µM | > 25 µM | > 25 | > 25 | > 25 | > 25 | > 25 | > 25 µM | > 25 | > 25 | > 25 | > 25
COC(=O)C#Cc1ccc([N+](=O)[O-])cc1 | 2.74 µM | 3.57 | 3.48 | 2.88 | 38.7 µM | 1.48 | 4.13 µM | 6.18 µM | 8.47 µM | 3.86 µM | – | – | – | – | – | – | – | – | – | –
COc1cnc2c(c1)C(=O)c1c-2n(CCCN2CCN(C)CC2)c(=O)c2cc(Cl)ccc12 | 18.4 µM | 19.8 | 31.9 | 5.33 | 13.8 µM | 45.1 | 5.04 µM | 25.2 µM | 78.9 µM | 49.6 µM | 2.97 | 3.18 | 7.73 | 0.345 | 0.377 | 13.9 µM | 2.3 | 11 | 13.8 | 7.24
COc1cc2c(cc1OC)[C@@]1(C)C(=O)c3cc4c(cc3[C@H]1N(C)C2=O)OCO4 | > 100 µM | > 100 | > 100 | > 100 | > 100 µM | > 100 | > 100 µM | > 100 µM | > 100 µM | > 100 µM | 37.3 | 58.1 | 55 | 33.3 | 37.7 | 33.9 µM | > 100 | 45.5 | > 100 | 34.3
[N-]=[N+]=CC(=O)OCC(N)C(=O)O (stereo unspecified) | > 100 µM | > 100 | > 100 | > 100 | 16.4 µM | > 100 | > 100 µM | 14.5 µM | > 100 µM | > 100 µM | 0.429 | 0.952 | 3.13 | 0.638 | 1.27 | 1.8 µM | 2.94 | 0.563 | 2.28 | 0.778
Nc1ccn([C@@H]2C=C(CO)[C@@H](O)[C@H]2O)c(=O)n1 | 4.52 µM and 4.16 µM and 22.2 µM | 500 | 134 | – | 2.27 µM and 9.48 µM and 8.82 µM | – | 500 µM and > 625 µM | 406 µM and 379 µM | 500 µM and > 625 µM | 500 µM and > 625 µM | – | 0.05 | 2.77 | 0.0171 | – | 0.0128 µM and 0.0635 µM and 0.126 µM | – | – | – | –
O=C(/C=C\Sc1nccc(C(F)(F)F)n1)c1ccc(Br)cc1 | 35.1 µM | 47.9 | 67.4 | 16.2 | > 100 µM | 4.63 | 32.1 µM | > 100 µM | > 100 µM | 72.8 µM | 18 | 17.6 | 23.3 | 4.44 | > 100 | 2.24 µM | 16 | 37.9 | 36.9 | 25
C/C(=C\c1c[nH]c2ccccc12)[N+](=O)[O-] | 18.9 µM | 15.5 | 27.1 | 5.83 | 17.4 µM | 4.17 | 5.47 µM | 19.2 µM | 20 µM | 7.04 µM | 5.67 | 3.73 | 10.2 | 2.19 | 4.18 | 1.81 µM | 1.84 | 5.8 | 5.82 | 2.14
ON(CCc1ccccn1)Cc1ccccc1 | > 100 µM | > 100 | > 100 | > 100 | > 100 µM | > 100 | > 100 µM | > 100 µM | > 100 µM | > 100 µM | – | – | – | – | – | – | – | – | – | –
COc1cccc2c1c1nc3cc(C)c(C)cc3nc1n2CCN(C)C | 6.34 µM | 12.1 | 7.33 | – | 10.9 µM | 4.29 | 4.23 µM | 3.01 µM | 14 µM | 11.7 µM | 0.946 | 3.01 | 2.29 | 0.498 | 1.09 | 1.16 µM | 1.94 | 1.64 | 2.04 | 2.21
O=C(Nc1ccc(Br)c(Cl)c1)c1cc(F)ccc1O | 3.46 µM | > 50 | 10 | 2.81 | > 14.8 µM | 1.02 | 3.87 µM | 1.05 µM | > 50 µM | > 50 µM | 0.826 | 1.39 | 0.77 | 0.943 | 0.675 | 0.231 µM | 0.421 | 0.358 | 0.729 | 0.768
